B1: bovine uroplakin II (mature) (other)
chain: ELVSVVDSGSGFTVTRLSAYQVTNLAPGTKYYISYLVTKGASTESSREIPMSTFPRRKAESIGLAMARTGGMVVITVLLSVAMFLLVLGLIIALALGARK

Legend:
[1] = test system: type 1-fimbriated E. coli; experiment: In vitro bacterial adherence assay: binding of 35S-labelled E. coli to immobilized bovine urothelial plaques (asymmetric unit membranes); details: 2x10^5 cpm; for effect of sugars on bacterial binding to bovine asymmetrical unit membranes: E. coli SH48 (type 1 only), preincubated with sugar, 0.2 μg immobilized bovine AUM
Description: Purified asymmetric unit membranes were suspended in PBS and incubated in 96-well polystyrene microtiter plates at room temperature for 30 minutes, then at 4° C. for 16 hours. All subsequent steps were carried out at room temperature. After being washed three times with PBS for two hours, the immobilized asymmetric membrane units were incubated with 2% BSA in PBS for two hours, and ^35 S-labelled bacteria were incubated in 2% BSA and 0.1% NaN3 for two hours. The wells were then washed four times with PBS, and the bound bacteria were dissolved in 1% SDS for 30 minutes and quantitated by scintillation counting. All binding studies were performed in triplicate.
Purified bovine urothelial plaques, consisting of asymmetric unit membranes that cover 70-80% of the urothelial apical surface, were immobilized on microtiter wells (0.2 microgram per well). The unoccupied binding sites were blocked with 3% BSA in PBS. BSA was used to coat the control wells. The E. coli strains used were J96, which express type 1 fimbriae as well as P fimbriae carrying the G-1 and G-2 adhesins; SH48, which expresses type 1 fimbriae only; HU849, which expresses P fimbriae carrying G-1 adhesin; IA2, which expresses P fimbriae carrying G-adhesins; and nonfimbriated P678-54.
^35 [S]methionine-labelled bacteria were added to each well (2×10^5 cpm in 10^7 bacteria suspended in PBS). After incubation at 25° C. for two hours, the wells were washed with PBS and the radioactivities of the bound bacteria, dissolved in 1% SDS, were counted. Each value represents the means of triplicates bracketed by the standard deviation (±15%). It should be noted that only the type 1-fimbriated J96 and SH48 strains, but not the P-expressing HU849 and IA2 or the nonfimbriated P678-54, adhered to the asymmetric unit membranes.
In FIG. 1B, the relative contribution of type 1 and P fimbriae in the binding of J96 to asymmetric unit membranes is shown. ^35 S-labelled J96 (2×10^5 cpm) were incubated with immobilized asymmetric unit membranes in the absence or the presence of 2% D-mannose.
To test the effects of sugars on the binding of type-1 fimbriated E. coli to bovine urothelial plaques, 2×10^5 cpm of radiolabeled E. coli (SH48) were preincubated with D-mannose (Man), methyl-α-D-mannopyranoside(MMP), or D-galactose (Gal) before they were incubated with 0.2 μg of immobilized bovine asymmetrical unit membranes.

[2] = test system: type 1-fimbriated bacteria; experiment: Bacterial (gel) overlay assay: radiolabelled bacteria on SDS/PAGE-resolved uroplakins on nitrocellulose; type: binding, E. coli; details: bovine uroplakins on nitrocellulose, autoradiography
Description: Asymmetric unit membrane proteins were resolved by SDS/PAGE (17% acrylamide; acrylamide/bisacrylamide=10:1) and electrophoretically transferred to nitrocellulose. After a brief incubation in 3% BSA in PBS to block the unoccupied sites, the nitrocellulose sheet was incubated with ^35 [S]methionine-labelled bacteria in 2% BSA and 0.1% NaN3. After three washings in PBS, the nitrocellulose was air-dried and autoradiographed.
To determine which of the asymmetric membrane proteins are responsible for this binding, a gel overlay assay was performed. Uroplakins were resolved by SDS/PAGE (cf. FIGS. 5A and 5B), transferred to nitrocellulose, and incubated with radiolabelled bacteria. […] The two major bacterial binding proteins were identified as the two closely related uroplakin proteins, i.e., the 27 kDa-uroplakin Ia and the 28 kDa-uroplakin Ib, according to their sizes and immunoreactivities (FIG. 5B, lanes 1 and 2). […] To determine whether the carbohydrate moieties of uroplakin I proteins were responsible for the binding of the type 1 fimbriae, as one might expect from the inhibitory effects of mannose (cf. FIG. 4), the effects of deglycosylation were tested, results shown in FIGS. 5D and E. Endo H removed about […] of sugars from uroplakin I proteins (cf. FIG. 5D, lanes 2 and 5). […]

[3] = molecular target: E. coli strain SH48, expressing type 1 fimbriae only (FimH adhesin) (E. coli, UniProt P08191); experiment: overlay of radiolabelled bacteria on SDS/PAGE-resolved uroplakins on nitrocellulose

| Molecule | effect of sugars on bacterial binding to bovine asymmetrical unit membranes [1] | inhibition of binding of type 1-fimbriated bacteria to uroplakin protein bands [2] | binding of J96 to asymmetric unit membranes in the presence of mannose ([1]; E. coli strain J96 (type 1 and P fimbriae), 2% D-mannose, immobilized bovine AUM) | binding result [3] |
| --- | --- | --- | --- | --- |
| O=C[C@H](O)[C@@H](O)[C@@H](O)[C@H](O)CO [D-galactose] | not | not | – | – |
| CO[C@H]1O[C@H](CO)[C@@H](O)[C@H](O)[C@@H]1O [methyl-α-D-mannopyranoside] | greatly inhibited | – | – | – |
| O=C[C@@H](O)[C@@H](O)[C@H](O)[C@H](O)CO [D-mannose] | greatly inhibited | inhibited | completely blocked | – |
| B1 | – | – | – | no binding |
